Drawing on US20080051387A1, “TETRAHYDROPYRIDO[3,4-D]PYRIMIDINES AND RELATED ANALOGUES” (priority 2006, published 2008), this text covers inhibition for twelve compounds.

Like-named read-outs stand apart in the source and are kept apart here.

This experiment concerns the target T1, chimeric human H3 receptor (Homo sapiens, UniProt Q9Y5N1).
T1 construct: rat Galpha-i2 (Gnai2, rat); made in house; host or cells: Sf9 insect cells (baculovirus); P2 membranes
The experiment is described as follows: Chimeric human H3 receptor screening GTP binding assay (inhibition of histamine-stimulated GTP-gamma35S binding, Example 8). The note with it: 1 h, symbol "!" in column headed Ki. The class given is biochemical. A digest of the protocol:
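Compound tested at 4 μM against 1 μM histamine stimulation; 125 pM GTP-gamma35S binding measured by filtration and scintillation after 60 min at room temperature. Membranes from Sf9 cells expressing chimeric human H3 plus G-protein subunits, in Tris pH 7.4/NaCl/MgCl2/GDP buffer; values are % inhibition after nonspecific subtraction.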

[1] abbreviates: assay described in Example 8, read-out: Ki ("!": percent inhibition of agonist-induced GTP-gammaS binding to H3).

T1 sequence (Q9Y5N1 with tags, fused parts or gaps): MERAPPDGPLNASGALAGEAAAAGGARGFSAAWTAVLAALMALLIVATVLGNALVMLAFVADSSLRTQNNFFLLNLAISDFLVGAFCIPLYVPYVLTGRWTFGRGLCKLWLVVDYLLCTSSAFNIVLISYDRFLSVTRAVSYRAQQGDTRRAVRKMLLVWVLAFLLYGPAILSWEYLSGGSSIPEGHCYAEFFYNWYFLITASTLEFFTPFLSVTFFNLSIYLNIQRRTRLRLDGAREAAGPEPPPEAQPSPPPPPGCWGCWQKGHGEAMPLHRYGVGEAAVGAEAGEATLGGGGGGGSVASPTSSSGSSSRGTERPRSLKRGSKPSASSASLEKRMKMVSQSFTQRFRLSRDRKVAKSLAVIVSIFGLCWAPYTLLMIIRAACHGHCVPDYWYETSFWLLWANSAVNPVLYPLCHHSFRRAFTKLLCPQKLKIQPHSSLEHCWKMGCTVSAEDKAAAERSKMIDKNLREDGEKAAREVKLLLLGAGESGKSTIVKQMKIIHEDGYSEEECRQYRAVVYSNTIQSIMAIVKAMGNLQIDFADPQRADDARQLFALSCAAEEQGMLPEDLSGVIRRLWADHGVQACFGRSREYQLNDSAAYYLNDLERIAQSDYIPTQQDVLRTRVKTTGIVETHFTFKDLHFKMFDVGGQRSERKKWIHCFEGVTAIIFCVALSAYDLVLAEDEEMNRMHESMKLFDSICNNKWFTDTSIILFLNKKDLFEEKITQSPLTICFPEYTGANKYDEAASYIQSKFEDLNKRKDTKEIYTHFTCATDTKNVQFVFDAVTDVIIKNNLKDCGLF

As for `COc1ccc(/C=C/C(=O)N2CCc3cnc(N4CCN(C5CCC5)CC4)nc3CC2)c(OC)c1` [Compound 570, 2-(4-cyclobutylpiperazin-1-yl)-7-[(2E)-3-(2,4-dimethoxyphenyl)prop-2-enoyl]-6,7,8,9-tetrahydro-5H-pyrimido[4,5-d]azepine], under setting [1], the inhibition at 4 µM is not below 90%. For the compound `COc1ccc(/C=C/C(=O)N2CCc3cnc(N4CCN(C5CCC5)CC4)nc3CC2)c(OC)c1OC` [Compound 571, 2-(4-cyclobutylpiperazin-1-yl)-7-[(2E)-3-(2,3,4-trimethoxyphenyl)prop-2-enoyl]-6,7,8,9-tetrahydro-5H-pyrimido[4,5-d]azepine], under setting [1], the inhibition at 4 µM was not below 90%. In the case of `Cc1ccccc1/C=C/C(=O)N1CCc2cnc(N3CCN(C4CCC4)CC3)nc2CC1` [Compound 572, 2-(4-cyclobutylpiperazin-1-yl)-7-[(2E)-3-(2-methylphenyl)prop-2-enoyl]-6,7,8,9-tetrahydro-5H-pyrimido[4,5-d]azepine], the inhibition at 4 µM under setting [1] was not below 90%. In the case of `COc1cccc(/C=C/C(=O)N2CCc3cnc(N4CCN(C5CCC5)CC4)nc3CC2)c1OC` [Compound 573, 2-(4-cyclobutylpiperazin-1-yl)-7-[(2E)-3-(2,3-dimethoxyphenyl)prop-2-enoyl]-6,7,8,9-tetrahydro-5H-pyrimido[4,5-d]azepine], the inhibition at 4 µM under setting [1] was not below 90%. On to `COc1ccc(OC)c(/C=C/C(=O)N2CCc3cnc(N4CCN(C5CCC5)CC4)nc3CC2)c1` [Compound 574, 2-(4-cyclobutylpiperazin-1-yl)-7-[(2E)-3-(2,5-dimethoxyphenyl)prop-2-enoyl]-6,7,8,9-tetrahydro-5H-pyrimido[4,5-d]azepine], for which, under setting [1], the inhibition at 4 µM was not below 90%. Still for that read-out and setting: in the case of `COc1cc(OC)c(OC)cc1/C=C/C(=O)N1CCc2cnc(N3CCN(C4CCC4)CC3)nc2CC1` [Compound 575, 2-(4-cyclobutylpiperazin-1-yl)-7-[(2E)-3-(2,4,5-trimethoxyphenyl)prop-2-enoyl]-6,7,8,9-tetrahydro-5H-pyrimido[4,5-d]azepine] it was not below 90%; in that of `COc1ccc(Br)cc1/C=C/C(=O)N1CCc2cnc(N3CCN(C4CCC4)CC3)nc2CC1` [Compound 576, 7-[(2E)-3-(5-bromo-2-methoxyphenyl)prop-2-enoyl]-2-(4-cyclobutylpiperazin-1-yl)-6,7,8,9-tetrahydro-5H-pyrimido[4,5-d]azepine], not below 90%; in that of `Cc1ccc(C)c(/C=C/C(=O)N2CCc3cnc(N4CCN(C5CCC5)CC4)nc3CC2)c1` [Compound 577, 2-(4-cyclobutylpiperazin-1-yl)-7-[(2E)-3-(2,5-dimethylphenyl)prop-2-enoyl]-6,7,8,9-tetrahydro-5H-pyrimido[4,5-d]azepine], not below 90%.

As to `O=C(/C=C/c1cccc2ccccc12)N1CCc2cnc(N3CCN(C4CCC4)CC3)nc2CC1` [Compound 578, 2-(4-cyclobutylpiperazin-1-yl)-7-[(2E)-3-(1-naphthyl)prop-2-enoyl]-6,7,8,9-tetrahydro-5H-pyrimido[4,5-d]azepine], the inhibition at 4 µM under setting [1] is not below 90%.

Turning to `O=C(/C=C/c1ccccc1Cl)N1CCc2cnc(N3CCN(C4CCC4)CC3)nc2CC1` [Compound 579, 7-[(2E)-3-(2-chlorophenyl)prop-2-enoyl]-2-(4-cyclobutylpiperazin-1-yl)-6,7,8,9-tetrahydro-5H-pyrimido[4,5-d]azepine], under setting [1], the inhibition at 4 µM is not below 90%. With `O=C(/C=C/c1ccccc1C(F)(F)F)N1CCc2cnc(N3CCN(C4CCC4)CC3)nc2CC1` [Compound 580, 2-(4-cyclobutylpiperazin-1-yl)-7-[(2E)-3-[2-(trifluoromethyl)phenyl]prop-2-enoyl]-6,7,8,9-tetrahydro-5H-pyrimido[4,5-d]azepine], the inhibition at 4 µM under setting [1] was not below 90%. As to `O=C(/C=C/c1ccc(Cl)cc1Cl)N1CCc2cnc(N3CCN(C4CCC4)CC3)nc2CC1` [Compound 581, 2-(4-cyclobutylpiperazin-1-yl)-7-[(2E)-3-(2,4-dichlorophenyl)prop-2-enoyl]-6,7,8,9-tetrahydro-5H-pyrimido[4,5-d]azepine], the inhibition at 4 µM (assay of Example 8, read-out: percent inhibition of agonist-induced GTP-gammaS binding to H3) was not below 90%.
